Test results published in US8257739B2, “Pharmaceutical compositions of semi-ordered drugs and polymers” (Bend Research, Inc., priority 2002, dated 2012).

What was measured:
[1] = In vitro dissolution test of Drug 1 compositions in MFDS solution (concentration enhancement); assay type: physicochemical; settings: for AUC90 / Cmax9O: Drug 1, MFDS pH 6.5, 37° C., first 90 min; for AUC / Drug 1 Concentration: MFDS pH 6.5, 37° C.
From the text: In conducting such a dissolution test, the amount of test composition used is an amount such that if all of the drug dissolved, the drug concentration would be at least 2-fold to 100-fold or more than that of the equilibrium concentration of the drug. The concentration of dissolved drug is typically measured as a function of time by sampling the test medium and plotting drug concentration in the test medium vs. time so that the MDC and/or AUC can be ascertained.
To avoid drug particulates greater than about 0.4 to 1.0 μm in size being present in the solution assayed, which would give an erroneous determination, the test solution is either filtered or centrifuged. “Dissolved drug” is typically taken as that material that either passes a 0.45 μm syringe filter or, alternatively, the material that remains in the supernatant following centrifugation. Filtration can be conducted using a 13 mm, 0.45 μm polyvinylidine difluoride syringe filter sold by Scientific Resources under the trademark TITAN®. Centrifugation is typically carried out in a polypropylene microcentrifuge tube by centrifuging at 13,000 G for 60 seconds. Other similar filtration or centrifugation methods can be employed and useful results obtained. For example, using other types of microfilters may yield values somewhat higher or lower (by about 10-40%) than that obtained with the filter specified above but will still allow identification of preferred compositions. It is recognized that this definition of “dissolved drug” encompasses not only monomeric solvated drug molecules but also a wide range of species such as polymer/drug assemblies that have submicron dimensions such as drug aggregates, aggregates of mixtures of polymer and drug, micelles, polymeric micelles, colloidal particles or nanocrystals, polymer/drug complexes, and other such drug-containing species that are present in the filtrate or supernatant in the specified dissolution test.
For these tests, samples containing 0.72 mg of Example 1B, 0.36 mg of either Control 1C or 1D, or 0.72 mg of Control 1E were separately added to microcentrifuge tubes. The tubes were placed in a 37° C. temperature-controlled chamber, and 1.8 mL MFDS solution at pH 6.5 was added. The contents of the tubes were quickly mixed using a vortex mixer for about 60 seconds. The tubes were then centrifuged at 13,000 G at 37° C. for 1 minute. The supernatant was sampled and diluted 1:6 (by volume) with methanol and then analyzed by high-performance liquid chromatography (HPLC). Drug 1 was analyzed by HPLC using a Waters Symmetry C18 column. The mobile phase consisted of 0.3 vol % glacial acetic acid, 0.2 vol % triethylamine in HPLC water/acetonitrile in a volume ratio of 50/50. Drug concentration was calculated by comparing UV absorbance at 260 nm to the absorbance of Drug 1 standards.
The contents of the tubes were then again mixed on the vortex mixer and allowed to stand undisturbed at 37° C. until the next sample was taken. Samples of the tubes were collected at 4, 10, 20, 40, 90, and 1200 minutes.

[2] = In vivo test of Drug 1 compositions, oral powder for constitution, plasma Drug 1; settings: male beagle dogs, oral gavage, 10 mgA/kg Drug 1, plasma
Experimental: The composition of Example 1B was used as an oral powder for constitution (OPC) for evaluating the performance of the composition in in vivo tests using male beagle dogs. The OPC was dosed as a suspension in a solution containing 0.5 wt % Methocel® (Dow Chemical Co.), and was prepared as follows. First, 5.0130 g of Methocel® was weighed out and added slowly to approximately 200 ml of water at 60° C. to form a Methocel® suspension. After all the Methocel® was added, the suspension was placed in a beaker of ice water. Next, 800 ml of chilled water was added with stirring. A 702.7 mg sample of Example 1B was weighed into a mortar. A drop of the Methocel® suspension was added to the mortar and the drug mixture was ground with a pestle. Additional Methocel® suspension was added gradually with grinding until a pourable suspension was obtained. The suspension was then transferred to a vial. The mortar and pestle were washed with the remaining Methocel® suspension. A total of 350 ml of Methocel® suspension was added to the Example 1B sample.
Six male beagle dogs were dosed with samples of Example 1B. Sufficient amounts of the OPC were dosed such that each dog received 10 mgA/kg of Drug 1 (where “A” refers to active drug). The dogs were fed 1 can of liquid diet the day prior to the study. On the day of the study, the dogs were dosed with the OPC using a gavage tube and a syringe. Whole blood samples of 6 ml were taken from the jugular vein using a plasma vacutainer containing sodium heparin with a 20 gauge needle at 0, ½, 1, 2, 3, 4, 6, 8, and 24 hours post dosing. Samples were spun in a refrigerated (5° C.) centrifuge at 3000 rpm for 5 minutes. The resultant plasma samples were poured into 2 ml cryogenic plastic tubes and stored in a freezer (−20° C.) within ½ hour post sampling time. Samples were then analyzed for Drug 1 using an HPLC method.
A similar method was used to dose the dogs with samples of Control 1B, Control 1C, and Control 1D. A washout period of at least 1 week was used between dosing of the various compositions.

[3] = In vitro dissolution test of Drug 2 compositions in MFDS solution (concentration enhancement); assay type: physicochemical; settings: 37° C.; for AUC / Drug 2 Concentration: MFDS
Experimental: The concentration-enhancement provided by Example 2, Control 2B and Control 2C was determined using an in vitro dissolution test as follows. Samples containing 3.91 mg of Example 2, 0.36 mg of Control 2B, or 3.9 mg of Control 2C, were separately added to microcentrifuge tubes. The tubes were placed in a 37° C. temperature-controlled chamber, and 1.8 mL MFDS solution was added. The contents of the tubes were quickly mixed using a vortex mixer for about 60 seconds. The tubes were then centrifuged at 13,000 G at 37° C. for 1 minute. The supernatant was sampled and diluted 1:6 (by volume) with methanol and then analyzed by high-performance liquid chromatography (HPLC). Drug 2 was analyzed by HPLC using a Phenomenex ODS 20 column (250 mm×4.6mm). The mobile phase consisted of 0.02 M KH2PO4 (pH 3)/acetonitrile in a volume ratio of 60/40. Drug concentration was calculated by comparing UV absorbance at 254 nm to the absorbance of Drug 2 standards. The contents of the tubes were then again mixed on the vortex mixer and the next sample was taken. […]

[4] = In vivo test of Drug 2 compositions, gelatin capsule, plasma Drug 2; settings: fasted male beagle dogs, one gelatin capsule, 40 mg Drug 2, plasma
Experimental: The composition of Example 2 was placed in a gelatin capsule such that the capsule contained 40 mg of Drug 2. Five fasted male beagle dogs were dosed with one capsule and whole blood samples of 6 ml were taken from the jugular vein using a plasma vacutainer containing sodium heparin with a 20 gauge needle at 0, ½, 1, 1½, 2, 3, 4, 6, 8, 12, and 24 hours post dosing. Samples were spun in a refrigerated (5° C.) centrifuge at 3000 rpm for 5 minutes. Resultant plasma samples were poured into 2 ml cryogenic plastic tubes and were stored in a freezer (−20° C.) within ½ hour post sampling time. Similar tests were performed with a gelatin capsule containing 40 mg of crystalline Drug 2 (Control 2B).

AUC90 [1] [µg·min/mL] | Cmax9O [1] [ng/mL] | AUC ([1]; time 0 min) [µg·min/mL] | Drug 1 Concentration ([1]; time 0 min) [µg/mL] | AUC ([1]; time 4 min) [µg·min/mL] | Drug 1 Concentration ([1]; time 4 min) [µg/mL] | AUC ([1]; time 10 min) [µg·min/mL] | Drug 1 Concentration ([1]; time 10 min) [µg/mL] | AUC ([1]; time 20 min) | Drug 1 Concentration ([1]; time 20 min) [µg/mL] | AUC ([1]; time 40 min) | Drug 1 Concentration ([1]; time 40 min) [µg/mL] | AUC ([1]; time 90 min) | Drug 1 Concentration ([1]; time 90 min) [µg/mL] | AUC ([1]; time 1200 min) | Drug 1 Concentration ([1]; time 1200 min) [µg/mL] | Cmax [2] | Structure (SMILES) | further results
2200 | 32000 | 0 | 0 | 0 | 9 | 100 | 15 | 300 µg·min/mL | 21 | 800 µg·min/mL | 27 | 2,200 min*μg/mL | 32 | 43,300 min*μg/mL | 42 | 1,650 ng/ml | NC(=O)N(O)C1C=C(c2cccc(Oc3ccc(F)cc3)c2)CC1 (single isomer, unassigned; (+)) [Control 1C, (+)-N-{3-[3-(4-fluorophenoxy)phenyl]-2-cyclopenten-1-yl}-N-hydroxyurea] | AUC(0-inf) ([2]; male, beagle, dog, plasma, po, 10 mgA/kg, read-out: AUC(0-inf)): 11100 ng·h/mL
5600 | 70000 | 0 | 0 | 100 | 50 | 400 | 58 | 1,000 min*μg/mL | 61 | 2,300 min*μg/mL | 64 | 5,600 min*μg/mL | 70 | 77,800 min*μg/mL | 60 | 3,622 ng/ml | NC(=O)N(O)C1C=C(c2cccc(Oc3ccc(F)cc3)c2)CC1 (single isomer, unassigned; (+)) [Control 1D, (+)-N-{3-[3-(4-fluorophenoxy)phenyl]-2-cyclopenten-1-yl}-N-hydroxyurea] | AUC(0-inf) [2]: 20,700 ng/ml * hr
– | – | – | – | – | – | – | – | – | – | – | – | – | – | – | – | – | O=C1Cc2cc(CCN3CCN(c4nsc5ccccc45)CC3)c(Cl)cc2N1 [Control 2B] | AUC90 ([3]; Drug 2, MFDS, first 90 min): 1,600 min * μg/mL; Cmax90 ([3]; Drug 2, MFDS, first 90 min): 23000 ng/mL; AUC ([3]; time 4 min): 0 µg·min/mL; Drug 2 Concentration ([3]; time 4 min): 14 µg/mL; AUC ([3]; time 10 min): 100 µg·min/mL; Drug 2 Concentration ([3]; time 10 min): 17 µg/mL; AUC ([3]; time 20 min): 300 µg·min/mL; Drug 2 Concentration ([3]; time 20 min): 23 µg/mL; AUC ([3]; time 40 min): 700 µg·min/mL; Drug 2 Concentration ([3]; time 40 min): 19 µg/mL; AUC ([3]; time 90 min): 1,600 min*μg/mL; Drug 2 Concentration ([3]; time 90 min): 15 µg/mL; AUC ([3]; time 1200 min): 14,900 min*μg/mL; Drug 2 Concentration ([3]; time 1200 min): 9 µg/mL; AUC(0-inf) [4]: 1050 ng·h/mL; Cmax [4]: 196 ng/mL
